Experimental data taken from EP3818828A1 (priority 2019, dated 2021).
Values after ≈ are worked out from the molar mass of the structure shown. Like-named read-outs stand apart in the source and are kept apart here.

What was measured:
Exserohilum turcicum = assay: Toxicity determination (EC50) on mycelial growth, growth rate method; type: cell-based; conditions: for EC50: median inhibition concentration
Description: (§1) The inhibition of samples for testing on the mycelial growth of plant pathogenic fungi for testing is determined with a growth rate method. 3-(3',4'-methylenedioxy phenyl)-N-n-propyl acrylamide, 3-(3',4'-methylenedioxy phenyl)-piperidine acrylate and five control agents are dissolved with dimethyl sulfoxide (DMSO), then formulated at 5-7 concentrations of different gradients for test following the trial test results, with the same concentration of DMSO as the control solvent, each treatment in triplicate. Fungal cakes with a diameter of 4 mm are taken from the edge of the colony, inoculated into the center of a PDA plate containing different agents of different concentrations and the DMSO control, with one piece of fungal cake inoculated in each plate (with a diameter of […]), and incubated in a constant temperature incubator at a temperature of 22±1.5°C. 7 days later (10-20 days may be needed for some pathogenic fungi), the diameter of the colony is measured with a cross over method according to the mycelial growth profile of the control pathogenic fungi, then the inhibition rate of mycelial growth is calculated.
(§2) 3-(3',4'-methylenedioxy phenyl)-piperidine acrylate, the control agents 96.5% of chlorothalonil technical and 97.0% of procymidone technical. Agents for testing and the control agents chlorothalonil and procymidone are treated at 5-8 concentrations of different gradients on the basis of preliminary tests to ensure that the inhibition rates for treatments at all the concentrations are between 10% and 90%.
(§3) For specific determination methods, with reference to Embodiment 1. The concentration of active ingredients in the culture medium is used as the testing concentration to calculate the toxic regression equation (Y=bx+a) and the median inhibition concentration EC50, 95% confidence limit, and relative toxicity. Relative toxicity (compared to chlorothalonil) = EC50 of chlorothalonil / EC50 of 3-(3',4'-methylenedioxy phenyl)-piperidine acrylate, and relative toxicity (compared to procymidone) = EC50 of procymidone / EC50 of 3-(3',4'-methylenedioxy phenyl)-piperidine acrylate.

Sclerotinia sclerotiorum = assay: as above; type: cell-based
Description: as §1, §2, §3

Phytophthora infestans = assay: microbe, parasite or virus in culture; type: cell-based; conditions: for EC50: median inhibition concentration
[1] = tested on: damping-off (P. aphanidermatum, P.capsici); assay: In-vivo greenhouse control of damping-off of tomatoes; conditions: Tomato; sick soil; 0.80 mg/mL (active ingredients)
Description: 3.88 g of 3-(3',4'-methylenedioxy phenyl)-N-n-propyl acrylamide was weighed and dissolved in 25 g of absolute ethyl alcohol, then 6 g of emulsifier 0203B was added, and mixed uniformly with stirring to get 10% of 3-(3',4'-methylenedioxy phenyl)-N-n-propyl acrylamide EC.
(§4) 5.61 g of 3-(3',4'-methylenedioxy phenyl)-piperidine acrylate was weighed and dissolved in 25 g of absolute ethyl alcohol, then 6 g of emulsifier 0203B was added, and mixed uniformly with stirring to get 14% of 3-(3',4'-methylenedioxy phenyl)-piperidine acrylate EC.
Sick soil of damping-off (P. aphanidermatum, P.capsici) was collected from the fields of tomatoes, eggplants and peppers in a solar greenhouse, and mixed evenly in equal proportion. Tomatoes (Variety: Song Tian Fen Yang Yang, 100 grains), eggplants (Variety: Lanza No. 2 F1 long eggplant, 100 grains), pepper (Longjiao No. 2 F1, 100 grains) were seeded quantitatively with the sick soil in pots (diameter: 15 cm) in a greenhouse, additionally with sterile vermiculite as the control (each 100 grains for determining the germination rate). […] Mortality of seedlings was investigated after the seedlings had grown 2 true leaves, and the control effect of each treatment on damping-off was calculated. […]

Leveillula taurica = assay: In-vivo greenhouse control of pepper powdery mildew
Description: as §4
Pepper seedling (Variety: Bell pepper) was carried out in a greenhouse, and the seedlings were transplanted into pots, 3 for each pot. Sick leaves of powdery mildew (Leveillula taurica) were harvested form peppers (Longjiao No. 2) in a solar greenhouse in Jingyuan County, Baiyin City, and formulated into a spore suspension of powdery mildew. Both sides of the pepper leaves were sprayed evenly with a small hand-held sprayer and inoculated. The first application was started at the early onset of powdery mildew. 14% of 3-(3',4'-methylenedioxy phenyl)-piperidine acrylate EC was diluted at four concentrations of 1.00, 0.667, 0.50 and 0.40 mg/mL (active ingredients); the control agent, 12.5% of myclobutanil EC, was diluted at a concentration of 0.063 mg/mL (active ingredients); additionally clear water was used as the control. The instrument for application is a small hand-held sprayer. Both sides of the leaves were sprayed evenly so that the leaves were wetted by the liquor without loss. Applications were conducted every 7 days consecutively for 3 times. 10 days after the third application, the disease extent of powdery mildew in the upper, middle and lower 3 leaves of each plant was investigated, to calculate the disease index and the control effect.

L.taurica = assay: Field efficiency test, tomato powdery mildew; type: in vivo; conditions: solar greenhouse
Description: The formulation of emulsifiable concentrate is the same as that in Embodiment 3.
Tomatoes (Variety: Song Tian Fen Yang Yang) were planted in a solar greenhouse. 14% of 3-(3',4'-methylenedioxy phenyl)-piperidine acrylate EC was diluted at four concentrations of 1.00, 0.80, 0.667 and 0.50 mg/mL (active ingredients); the control agent, 72% cream urea·manganese zinc WP was diluted at a concentration of 1.00 mg/mL (active ingredients); additionally clear water was used as the control. The first application was started before the onset of L.taurica. The instrument for application was a WS-18D knapsack electric sprayer, which employed a cone nozzle. Each agent was formulated into the desired concentrations according to the usage amount of the control clear water. Both sides of the tomato leaves were sprayed evenly. Thereafter, applications were conducted every 7 days consecutively for 4 times. 10 days after the fourth application, the number of sick leaves at each grade of powdery mildew was investigated following the grading standard of 9 grades, to calculate the disease index and the control effect.

[2] = EC50 of chlorothalonil / EC50 of agent
[3] = EC50 of procymidone / EC50 of agent

O=C(/C=C/c1ccc2c(c1)OCO2)N1CCCCC1 [3-(3',4'-methylenedioxyphenyl)-piperidine acrylate]
Relative Toxicity (Compared to Chlorothalonil) (Exserohilum turcicum; [2]): 3.21 | Relative Toxicity (Compared to Procymidone) (Exserohilum turcicum; [3]): 0.82 | EC50 (Exserohilum turcicum; listed as 66#): 128.1 µg/mL (≈ 494 µM) | EC50 (Exserohilum turcicum; read-out: EC50): 130 µg/mL (≈ 501 µM) | Relative Toxicity (Compared to Chlorothalonil) (Sclerotinia sclerotiorum; [2]): 0.28 | Relative Toxicity (Compared to Procymidone) (Sclerotinia sclerotiorum; [3]): 0.31 | EC50 (Sclerotinia sclerotiorum; median inhibition concentration): 227 µg/mL (≈ 875 µM) | Relative Toxicity (Compared to Chlorothalonil) (Phytophthora infestans; [2]): 1.23 | Relative Toxicity (Compared to Procymidone) (Phytophthora infestans; [3]): 8.36 | EC50 (Phytophthora infestans): 90 µg/mL (≈ 347 µM) | EC50 (Phytophthora infestans; listed as 66#): 93 µg/mL (≈ 359 µM) | Control Effect [1]: 61.41% | Control Effect (Leveillula taurica; 0.50 mg/mL): 75.56% | Control Effect (Leveillula taurica; 0.667 mg/mL): 84.56% | Control Effect (Leveillula taurica; 1.00 mg/mL): 100% | Control Effect (L.taurica; 0.50 mg/mL): 81.68% | Control Effect (L.taurica; 0.667 mg/mL): 88.19% | Control Effect (L.taurica; 0.80 mg/mL): 90.36% | Control Effect (L.taurica; 1.00 mg/mL): 97.85%
